Measured values reported in patent US10479793B2, “Imidazopyridazine compounds useful as modulators of IL-12, IL-23 and/or IFN alpha responses” (BRISTOL-MYERS SQUIBB COMPANY, priority 2015, dated 2019).
Read-outs that look alike come from different tables or passages of the source.

Legend:
[1] = test system: IL-23 stimulated Kit225 T cells with a stably-integrated STAT-dependent luciferase reporter; test: Kit225 T cell assay, IL-23 stimulated STAT-dependent luciferase reporter; format: cell-based, human
Method: (§1) Kit225 T cells with a stably-integrated STAT-dependent luciferase reporter were plated in RPMI (GIBCO) containing 10% heat-inactivated FBS (GIBCO) and 100 U/mL PenStrep (GIBCO). The cells were then stimulated with either 20 ng/mL human recombinant IL-23 or 200 U/mL human recombinant IFNα (PBL InterferonSource) for 5-6 hours. Luciferase expression was measured using the STEADY-GLO Luciferase Assay System (PROMEGA) according to the manufacturer's instructions.

[2] = test system: IFNα stimulated Kit225 T cells with a stably-integrated STAT-dependent luciferase reporter; test: Kit225 T cell assay, IFNα stimulated STAT-dependent luciferase reporter; format: cell-based, human
Method: as §1

[3] = biological target: T1, recombinantly expressed His-tagged protein corresponding to amino acids 575-869 of human Tyk2 (Homo sapiens, UniProt P29597); test: Probe displacement assay (scintillation proximity, tritiated probe); format: binding; conditions: His-tagged Tyk2 (575-869) 2.5 nM, 40 nM radiolabeled probe, 30 minutes at room temperature
T1 construct: made in house
Method: The preparation of radiolabeled probe, (R)—N-(1-(3-(8-methyl-5-(methylamino)-8H-imidazo[4,5-d]thiazolo[5,4-b]pyridin-2-yl)phenyl)ethyl)-2-([^3H]methylsulfonyl)benzamide, was performed as described below: […]

[4] = Homo sapiens, KIT225, 20 ng/mL human recombinant IL-23, 5-6 hours, luciferase, read-out: IL-23 Kit225 Reporter, (IC50)
[5] = Homo sapiens, KIT225, 200 U/mL human recombinant IFNα, 5-6 hours, luciferase, read-out: IFNa Kit225 Reporter, (IC50)
[6] = Homo sapiens, KIT225, read-out: IFNa Kit225 Reporter, (IC50, uM)
[7] = KIT225, 20 ng/mL human recombinant IL-23, 5-6 hours, luciferase, read-out: IL-23 Kit225 Reporter, (IC50)
[8] = KIT225, 200 U/mL human recombinant IFNα, 5-6 hours, luciferase, read-out: IFNa Kit225 Reporter, (IC50)

T1 sequence (P29597 with tags, fused parts or gaps): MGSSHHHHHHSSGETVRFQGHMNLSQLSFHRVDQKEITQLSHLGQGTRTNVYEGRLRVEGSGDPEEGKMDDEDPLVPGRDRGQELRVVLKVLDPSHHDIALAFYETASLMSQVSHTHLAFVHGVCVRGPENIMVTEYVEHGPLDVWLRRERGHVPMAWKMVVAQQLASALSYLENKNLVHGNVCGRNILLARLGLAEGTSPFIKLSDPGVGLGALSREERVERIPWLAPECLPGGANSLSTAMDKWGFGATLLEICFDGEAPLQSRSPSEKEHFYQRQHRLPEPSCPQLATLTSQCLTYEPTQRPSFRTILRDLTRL

IC50 [1, 4] [µM]	IC50 [2, 5] [µM]	EC50 [3] [µM]	IC50 [1, 7] [µM]	IC50 [2, 8] [µM]	Compound	IC50 ([1]; Homo sapiens, KIT225, read-out: IL-23 Kit225 Reporter, (IC50, uM)) [µM]	IC50 [2, 6] [µM]
		0.00421	0.12	0.09	CNc1cc(Nc2cc(F)ccc2F)nn2c(C(N)=O)cnc12 [Example 6]		
	3.3	0.25			CNc1cc(Nc2cc(C)cc(C)c2)nn2c(C(=O)N3CC(O)C3)cnc12 [Example 7]		
		0.00757	0.16	0.08	CNc1cc(N2CCc3ccccc32)nn2c(C(=O)NC3CCC3)cnc12 [Example 10]		
		0.00704	0.24	0.09	CNc1cc(Nc2cc(F)cc(F)c2OC)nn2c(C(=O)NCC(C)(C)C)cnc12 [Example 16]		
		0.03	0.39	0.21	CNc1cc(Nc2c(F)c(F)cc(F)c2F)nn2c(C(=O)NCC(C)(C)O)cnc12 [Example 21]		
0.25	0.18	0.00546			CNc1cc(Nc2ccccn2)nn2c(C(=O)N[C@@H]3C[C@@H]3F)cnc12 [Example 22]		
		0.00293	0.09	0.06	CNc1cc(Nc2cccnc2OC)nn2c(C(=O)NCCF)cnc12 [Example 26]		
0.04	0.01	0.0027			CNc1cc(Nc2cccnc2OC)nn2c(C(=O)NC3CCC3)cnc12 [Example 27]		
		0.06	0.33	0.45	CNc1cc(Nc2cccnc2-n2cccn2)nn2c(C(=O)NC3CCCC3O)cnc12 (stereo not shown) [Example 28]		
		0.05	0.54	0.31	CNc1cc(Nc2cccnc2-n2cccn2)nn2c(C(=O)N[C@@H](C)CO)cnc12 [Example 32]		
		0.19	12.5	12.5	N#Cc1cc(Nc2cc(NC3CC3)c3ncc(C(=O)NC4CC4)n3n2)cc(C(F)(F)F)c1 [Example 33]		
		0.06	1.46	1.39	O=C(NC1CCC1)c1cnc2c(NC3CC3)cc(Nc3cc(F)cc(F)c3F)nn12 [Example 44]		
		0.07	7.04	12.8	Cc1cc(C)cc(Nc2cc(NCCO)c3ncc(C(N)=O)n3n2)c1 [Example 52]		
		0.2	9.72	12.4	Cc1cc(C)cc(Nc2cc(NCC(C)C)c3ncc(C(N)=O)n3n2)c1 [Example 53]		
		0.03	1.25	1.17	CCCNc1cc(Nc2cc(C)cc(C)c2)nn2c(C(N)=O)cnc12 [Example 54]		

The next lines start with the compound.

Compound	IC50 [1, 4] [µM]	IC50 [2, 5] [µM]	EC50 [3] [µM]	IC50 [1, 7] [µM]	IC50 [2, 8] [µM]	IC50 ([1]; Homo sapiens, KIT225, read-out: IL-23 Kit225 Reporter, (IC50, uM)) [µM]	IC50 [2, 6] [µM]
CNc1cc(Nc2cc(C)cc(F)c2)nn2c(C(=O)NC3CC3)cnc12 [Example 2]	0.03	0.03	0.00324				
CNc1cc(Nc2cc(C)cc(F)c2)nn2c(C(=O)N3CCC3)cnc12 [Example 3]			0.06			2.82	1.92
CNc1cc(Nc2cc(F)cc(C(F)(F)F)c2)nn2c(C(=O)NC3CCC3)cnc12 [Example 4]	0.81	0.32	0.00685				
CNc1cc(Nc2cccc(OC(F)(F)F)c2)nn2c(C(=O)NC3CCC3)cnc12 [Example 5]	0.5	0.5	0.00729				
CNc1cc(Nc2cc(F)ccc2F)nn2c(C(=O)NC3CC3)cnc12 [Example 8]	0.03	0.03	0.00361				
CNc1cc(Nc2cc(C)cc(F)c2)nn2c(C(=O)NCC(C)(C)O)cnc12 [Example 9]	0.25	0.17	0.00591				
CNc1cc(N2CCc3ccccc32)nn2c(C(=O)NCC(C)(C)O)cnc12 [Example 11]			0.09	2.9	2.27		
CNc1cc(Nc2cc(F)cc(F)c2F)nn2c(C(=O)NC3CC3)cnc12 [Example 13]	0.05	0.03	0.00297				
CNc1cc(Nc2cc(F)cc(F)c2F)nn2c(C(=O)NCC(C)(C)O)cnc12 [Example 14]			0.00703	0.37	0.26		
CNc1cc(Nc2cc(F)cc(F)c2)nn2c(C(=O)NCC(C)(C)CO)cnc12 [Example 15]			0.02	0.56	0.4		
CNc1cc(Nc2cc(F)cc(F)c2F)nn2c(C(=O)NCC(C)(C)CO)cnc12 [Example 18]			0.00372	0.04	0.01		
CNc1cc(Nc2c(F)c(F)cc(F)c2F)nn2c(C(N)=O)cnc12 [Example 19]			0.00586	0.27	0.17		
CNc1cc(Nc2c(F)c(F)cc(F)c2F)nn2c(C(=O)NC3CC3)cnc12 [Example 20]	0.06	0.05	0.00397				
CNc1cc(Nc2cccc(-c3ccc(OC(F)(F)F)cc3)n2)nn2c(C(=O)NC3(C#N)CC3)cnc12 [Example 23]			0.04	0.42	0.66		
CNc1cc(Nc2cccnc2OC)nn2c(C(=O)NC3(C#N)CC3)cnc12 [Example 24]			0.00725	0.04	0.05		
CNc1cc(Nc2cccnc2OC)nn2c(C(=O)NCCO)cnc12 [Example 25]			0.00605	0.05	0.09		
CNc1cc(Nc2cccnc2-n2cccn2)nn2c(C(=O)NC(C)CO)cnc12 (stereo not shown) [Example 29]			0.04	0.27	0.41		
CNc1cc(Nc2cccnc2-n2cccn2)nn2c(C(=O)NCCO)cnc12 [Example 30]			0.02	0.35	0.21		
CNc1cc(Nc2cccnc2-n2cccn2)nn2c(C(=O)NCC(C)(C)O)cnc12 [Example 31]			0.13	0.58	2.58		
N#Cc1cc(Nc2cc(NC3CC3)c3ncc(C(=O)NCCO)n3n2)cc(C(F)(F)F)c1 [Example 35]			0.16	8.07	8.48		
CCNC(=O)c1cnc2c(NC3CC3)cc(Nc3cc(C#N)cc(C(F)(F)F)c3)nn12 [Example 36]			0.35	3.33	12.5		
Cc1cc(F)cc(Nc2cc(NC3CC3)c3ncc(C(=O)NC4CC4)n3n2)c1 [Example 38]	0.79	0.58	0.02				
NC(=O)c1cnc2c(NC3CC3)cc(Nc3cccc(F)c3)nn12 [Example 47]			0.04	1.12	1.13		
Cc1cc(C)cc(Nc2cc(NCCCN(C)C)c3ncc(C(N)=O)n3n2)c1 [Example 50]			0.07	2.32	1.28		
Cc1cc(C)cc(Nc2cc(NCC3CC3)c3ncc(C(N)=O)n3n2)c1 [Example 51]			0.07	3.74	2.9		
CNc1cc(Nc2cccnc2-n2ccc(C(F)(F)F)n2)nn2c(C(=O)NC3CC3)cnc12 [Example 99]			0.57				
CNc1cc(Nc2cccnc2C(=O)NCCOC)nn2c(C(=O)NC3CC3)cnc12 [Example 108]			0.00759				
CNc1cc(Nc2cccc(-c3ccc(C(F)(F)F)cc3F)c2)nn2c(C(=O)NC[C@@](C)(O)CO)cnc12 [Example 113]			0.00762	0.75			
CNc1cc(Nc2cc(C)cc(C)c2)nn2c(C(=O)NC3CC3)cnc12 [Example 114]							0.1
